Assay results taken from patent publication US20070116736A1, “Local vascular delivery of PI3 kinase inhibitors alone or in combination with sirolimus to prevent restinosis following vascular injury” (priority 2005, published 2007).

How the values were obtained:
cell viability = cell viability assay; format: cell-based
[1] = system: human coronary artery smooth muscle cells; conditions: synchronized cells, two percent fetal bovine serum; for effect of addition of the agent on the percent inhibition of rapamycin: topotecan zero to three hundred nanomolar, etoposide zero to eight hundred nanomolar, Panzem zero to 100 micromolar
tumor cell lines = tumor cell lines (Woo et al. 2002); cited from earlier work
[2] = system: human coronary artery smooth muscle cell; assay: in vitro cell culture study, coronary artery smooth muscle cell proliferation (trichostatin A); format: cell-based
Excerpt: FIG. 51 is a graph of the inhibition of coronary artery smooth muscle cells by trichostatin A in a cell culture study.

[3] = system: human coronary artery smooth muscle cells; assay: anti-proliferative activity in non-synchronized cultured human coronary artery smooth muscle cells stimulated with two percent fetal bovine serum; format: cell-based; conditions: for effect of addition of the agent on the anti-proliferative activity of rapamycin: mycophenolic acid zero to one thousand nanomolar, cladribine zero to nine hundred nanomolar
Excerpt: The multiple curves represent various concentrations of mycophenolic acid ranging from zero to one thousand nanomolar concentrations.
The multiple curves represent various concentrations of cladribine ranging from zero to nine hundred nanomolar concentrations.

[4] = system: human smooth muscle cells; assay: Cladribine Example, PDGF-stimulated cell proliferation (cell count), smooth muscle cells; format: cell-based; conditions: from IC50 values
Protocol: To assess the ability of cladribine to prevent cell proliferation, human smooth muscle or endothelial cells (Clonetics, Walkersville, Md.) were seeded at a density of 2000 cells/cm^2 (approximately 3600 cells/well) into each well of 12-well plates and cultured with 1.5 ml of growth medium containing five percent fetal calf serum (FCS). After twenty-four hours, the growth medium was changed and fresh medium containing 10 ng/ml platelet-derived growth factor AB (PDGF AB; LIFE Technologies), as well as various concentrations of cladribine (0.001-10,000 nM) were added with triplicate wells. Medium was replaced with fresh cladribine-containing medium after three days. On day six, cells were detached by trypsinization to yield a cell suspension, lightly centrifuged to pellet and then counted manually using a Neubauer hemocytometer system. Cell viability was assessed by trypan blue exclusion.

[5] = drug concentration in liquid formulations by liquid chromatography / HPLC assay; format: physicochemical
[6] = system: human coronary artery smooth muscle cell; assay: MTS cytotoxicity assay; format: cell-based; conditions: concentrations up to 30,000.00 nanomolar
Excerpt: Typically, a control is utilized to determine baseline toxicity.

[7] = porcine drug elution PK study of dual drug eluting coating; format: in vivo; conditions: after eight (8) days of implantation, pig coronary arteries; single layer coating of FIG. 83
Excerpt: Another critical parameter for the performance of the thrombus resistance of a device coated with cilostazol is the duration of the drug release from the coating. This is of particular significance in the two weeks after device implantation. In the porcine drug elution PK studies of the dual drug eluting coating, both cilostazol and sirolius were slowly released from the coating, resulting in a sustained drug release profile. The purpose of the porcine PK study is to assess the local pharmacokinetics of a drug eluting stent at a given implantation time. Normally three stents are implanted in three different coronary arteries in a pig for a given time point and then retrieved for total drug recovery analysis. The stents are retrieved at predetermined time points; namely, 1, 3 and 8 days. The stents are extracted and the total amount of drug remaining on the stents is determined by analysis utilizing HPLC (high performance liquid chromatography) for total drug amount. The difference between the original amount of drug on the stent and the amount of drug retrieved at a given time represents the amount of drug released in that period. The continuous release of drug into surrounding arterial tissue is what prevents the neointimal growth and restenosis in the coronary artery. A normal plot represents the percentage of total drug released (%, y-axis) vs. time of implantation (day, x-axis). […]

[8] = in vitro release of sirolimus and cilostazol from stent coating; format: physicochemical; conditions: single layer coating of FIG. 83

With `CC[C@@]1(O)C(=O)OCc2c1cc1n(c2=O)Cc2cc3c(CN(C)C)c(O)ccc3nc2-1` [topotecan] the “cytotoxicity in cell viability assay” value (cell viability; at concentrations up to one micromolar) was “non-cytotoxic” and the “effect of addition of the agent on the percent inhibition of rapamycin” value (“effect … on the percent inhibition of rapamycin” for short) [1] was “increases the percent inhibition of rapamycin alone”.
In the case of `CC(/C=C/C(=O)NO)=C\[C@@H](C)C(=O)c1ccc(N(C)C)cc1` [trichostatin A], the “anti-proliferative IC50” value (tumor cell lines) is listed as “low nM range”, the IC50 ([2]; human coronary artery smooth muscle cell proliferation, read-out: anti-proliferative IC50) is listed as roughly 6 nM and the “inhibition of human coronary artery smooth muscle cell proliferation” value ([2]; in vitro cell culture) is listed as “completely inhibit”.
In the case of `COc1cc([C@@H]2c3cc4c(cc3[C@@H](O[C@@H]3O[C@@H]5CO[C@@H](C)O[C@H]5[C@H](O)[C@H]3O)[C@H]3COC(=O)[C@H]23)OCO4)cc(OC)c1O` [etoposide], the “cytotoxicity in cell viability assay” value (cell viability; at concentrations up to ten micromolar) is reported as “non-cytotoxic” and the “effect … on the percent inhibition of rapamycin” value [1] is reported as “increases the percent inhibition of rapamycin alone”.
With `Nc1nc(Cl)nc2c1ncn2[C@H]1C[C@H](O)[C@@H](CO)O1` [cladribine, 2-chlorodeoxyadenosine] the “inhibition of human coronary artery smooth muscle cell proliferation” value [3] was “completely inhibits”, the “effect of addition of the agent on the anti-proliferative activity of rapamycin” value [3] was “increases the percent inhibition of rapamycin alone” and the “potency as inhibitor of smooth muscle cells relative to endothelial cells” value [4] was “approximately twice”.
With `CO[C@H]1C[C@@H]2CC[C@@H](C)[C@@](O)(O2)C(=O)C(=O)N2CCCC[C@H]2C(=O)O[C@H]([C@H](C)C[C@@H]2CC[C@@H](OC(=O)C(C)(CO)CO)[C@H](OC)C2)CC(=O)[C@H](C)/C=C(\C)[C@@H](O)[C@@H](OC)C(=O)[C@H](C)C[C@H](C)/C=C/C=C/C=C/1C` [CCI-779] the “concentration of CCI-779 in the final solution (HPLC assay)” value ([5]; Vitamin E TPGS, water, ethanol less than two percent) was 15000 µg/mL.
For `COc1cc2c(cc1O)CC[C@@H]1[C@@H]2CC[C@]2(C)[C@@H](O)CC[C@@H]12` [Panzem®, 2-methoxyestradiol], the “inhibition of human coronary artery smooth muscle cell proliferation in vitro” value [1] was “extremely effective inhibitor”, the “effect … on the percent inhibition of rapamycin” value [1] was “increases the percent of inhibition of rapamycin alone” and the “human coronary artery smooth muscle cell survival (MTS assay)” value [6] was “do not reduce human coronary artery smooth muscle cell survival”.
For `CO[C@H]1C[C@@H]2CC[C@@H](C)[C@@](O)(O2)C(=O)C(=O)N2CCCC[C@H]2C(=O)O[C@H]([C@H](C)C[C@@H]2CC[C@@H](O)[C@H](OC)C2)CC(=O)[C@H](C)/C=C(\C)[C@@H](O)[C@@H](OC)C(=O)[C@H](C)C[C@H](C)/C=C/C=C/C=C/1C` [rapamycin], the “concentration in formulation relative to solubility of sirolimus in water” value ([5]; 4 mg/ml PEG 200 formulation) was “four hundred to about one thousand” and the “drug remaining in the drug coating” value [7] was roughly 80%.
In the case of `O=C1CCc2cc(OCCCCc3nnnn3C3CCCCC3)ccc2N1` [cilostazol, 6[4-(1-cyclohexyl-1H-tetrazol-5-yl)-butoxy]-3,4-dihydro-2-(1H)-quinolinone], the “drug remaining in the drug coating” value [7] is reported as roughly 80% and the “in vitro release from coating” value [8] is reported as roughly 35%.
With `COc1c(C)c2c(c(O)c1C/C=C(\C)CCC(=O)O)C(=O)OC2` [mycophenolic acid] the “effect of addition of the agent on the anti-proliferative activity of rapamycin” value [3] was “potentiates the anti-proliferative activity of rapamycin”.
